Experimental data taken from PubChem BioAssay AID720673 (NMMLSC, 2013).
Active and inactive are the calls of the source. No rule for the calls is given here.

Molecular target: Botulinum neurotoxin type A light chain (Clostridium botulinum A ATCC 3502)
Test: BoNT/A light chain protease inhibitors, dose response, biochemical, powder set 03 (AID 720673)
Settings: BoNT/A LC protease, multiplex microsphere substrate cleavage assay

`Cc1ccc(-c2nc3nc(-c4ccc(S(C)(=O)=O)cc4)cn3nc2-c2ccc(C)cc2)cc1` was tested, and the EC50 was 7.6 µM.

For `CS(=O)(=O)c1ccc(-c2cn3nc(-c4ccccc4)c(-c4ccccc4)nc3n2)cc1`, the EC50 was 11.6 µM.

With `FC(F)(F)Oc1ccc(-c2cn3nc(-c4ccccc4)c(-c4ccccc4)nc3n2)cc1` the EC50 was > 20 µM (inactive).

In the case of `O=C(Nc1ccc2nc(-c3ccccc3)c(-c3ccccc3)nc2c1)OCc1ccccc1`, the EC50 is reported as > 20 µM (inactive).

With `CC(C)(C)C(=O)Nc1ccc2nc(-c3ccccc3)c(-c3ccccc3)nc2c1` the EC50 was > 20 µM (inactive).

In the case of `CC(=O)Nc1ccc2nc(-c3ccccc3)c(-c3ccccc3)nc2c1`, the EC50 is reported as > 20 µM (inactive).

Compound `COc1ccccc1-c1cn2nc(-c3ccccc3)c(-c3ccccc3)nc2n1` has an EC50 of 10.9 µM.

With `COC(=O)Nc1ccc2nc(-c3ccccc3)c(-c3ccccc3)nc2c1` the EC50 was > 20 µM (inactive).

With `O=C(Nc1ccc2nc(-c3ccccc3)c(-c3ccccc3)nc2c1)C1CCC1` the EC50 was > 20 µM (inactive).

With `CC(Oc1ccccc1)C(=O)Nc1ccc2nc(-c3ccccc3)c(-c3ccccc3)nc2c1` (configuration not stated) the EC50 was > 20 µM (inactive).

For `COc1ccc(-c2nc3nc(-c4cccc(F)c4)cn3nc2-c2ccc(OC)cc2)cc1`, the EC50 was 7 µM.

With `O=C(Nc1ccc2nc(-c3ccccc3)c(-c3ccccc3)nc2c1)C1CC1` the EC50 was > 20 µM (inactive).

In the case of `O=C(Nc1ccc2nc(-c3ccccc3)c(-c3ccccc3)nc2c1)C1CCCCC1`, the EC50 is reported as > 20 µM (inactive).

For `N#Cc1ccc(-c2cn3nc(-c4ccccc4)c(-c4ccccc4)nc3n2)cc1`, the EC50 was > 20 µM (inactive).

With `CC(C)(C)NC(=O)Nc1ccc2nc(-c3ccccc3)c(-c3ccccc3)nc2c1` the EC50 was > 20 µM (inactive).

For `CC(C)CS(=O)(=O)Nc1ccc2nc(-c3cccs3)c(-c3cccs3)nc2c1`, the EC50 was > 20 µM (inactive).

For `Fc1ccc(-c2cn3nc(-c4ccc(F)cc4)c(-c4ccc(F)cc4)nc3n2)cc1`, the EC50 was 6.7 µM.

Work on `Cc1ccc(-c2nc3nc(-c4cccc(F)c4)cn3nc2-c2ccc(C)cc2)cc1` yielded an EC50 of 5.2 µM.

Compound `O=C(Nc1ccc2nc(-c3cccs3)c(-c3cccs3)nc2c1)OCc1ccccc1` has an EC50 of 10.6 µM.

`COc1ccc(-c2cn3nc(-c4ccc(F)cc4)c(-c4ccc(F)cc4)nc3n2)c(OC)c1` gave an EC50 of 5.7 µM.

`CCCCOC(=O)Nc1ccc2nc(-c3ccccc3)c(-c3ccccc3)nc2c1` was tested, and the EC50 was > 20 µM (inactive).

In the case of `O=S(=O)(Nc1ccc2nc(-c3cccs3)c(-c3cccs3)nc2c1)C1CC1`, the EC50 is reported as > 20 µM (inactive).

`COc1ccc(-c2cn3nc(-c4ccc(F)cc4)c(-c4ccc(F)cc4)nc3n2)cc1` was tested, and the EC50 was 7.1 µM.

`COc1ccc(-c2nc3nc(-c4ccc(C#N)cc4)cn3nc2-c2ccc(OC)cc2)cc1` was tested, and the EC50 was 2.4 µM.

In the case of `COc1ccccc1-c1cn2nc(-c3ccc(C)cc3)c(-c3ccc(C)cc3)nc2n1`, the EC50 is reported as 12.4 µM.

In the case of `Cc1ccc(-c2cn3nc(-c4ccc(C)cc4)c(-c4ccc(C)cc4)nc3n2)cc1`, the EC50 is reported as 4.7 µM.

`CC(C)OC(=O)Nc1ccc2nc(-c3cccs3)c(-c3cccs3)nc2c1` was tested, and the EC50 was > 20 µM (inactive).

`Fc1ccc(-c2nc3nc(-c4ccccc4)cn3nc2-c2ccc(F)cc2)cc1` was tested, and the EC50 was 11.1 µM.

In the case of `CCS(=O)(=O)Nc1ccc2nc(-c3ccccc3)c(-c3ccccc3)nc2c1`, the EC50 is reported as > 20 µM (inactive).

`CCNC(=O)Nc1ccc2nc(-c3cccs3)c(-c3cccs3)nc2c1` gave an EC50 of 14.3 µM.

For `O=C(Nc1ccc2nc(-c3ccccc3)c(-c3ccccc3)nc2c1)C1CCCC1`, the EC50 was > 20 µM (inactive).

With `CCCS(=O)(=O)Nc1ccc2nc(-c3cccs3)c(-c3cccs3)nc2c1` the EC50 was > 20 µM (inactive).

In the case of `O=C(Nc1ccc2nc(-c3cccs3)c(-c3cccs3)nc2c1)C1CCC1`, the EC50 is reported as > 20 µM (inactive).

Compound `COc1ccc(-c2nc3nc(-c4ccc(OC(F)(F)F)cc4)cn3nc2-c2ccc(OC)cc2)cc1` has an EC50 of 4.2 µM.

`CCCOC(=O)Nc1ccc2nc(-c3cccs3)c(-c3cccs3)nc2c1` was tested, and the EC50 was > 20 µM (inactive).

In the case of `CCCCOC(=O)Nc1ccc2nc(-c3cccs3)c(-c3cccs3)nc2c1`, the EC50 is reported as > 20 µM (inactive).

For `CS(=O)(=O)c1ccc(-c2cn3nc(-c4ccc(F)cc4)c(-c4ccc(F)cc4)nc3n2)cc1`, the EC50 was > 20 µM (inactive).

Work on `Cc1ccc(-c2nc3nc(-c4ccccc4)cn3nc2-c2ccc(C)cc2)cc1` yielded an EC50 of 7.4 µM.

Work on `COc1cccc(-c2cn3nc(-c4ccccc4)c(-c4ccccc4)nc3n2)c1` yielded an EC50 of 16.2 µM.

`CCOC(=O)Nc1ccc2nc(-c3ccccc3)c(-c3ccccc3)nc2c1` was tested, and the EC50 was > 20 µM (inactive).

`COc1ccc(-c2cn3nc(-c4ccc(OC)cc4)c(-c4ccc(OC)cc4)nc3n2)cc1` was tested, and the EC50 was 5.7 µM.

For `Clc1ccc(-c2cn3nc(-c4ccccc4)c(-c4ccccc4)nc3n2)c(Cl)c1`, the EC50 was > 20 µM (inactive).

For `COc1ccc(-c2nc3nc(-c4cccc(OC)c4)cn3nc2-c2ccc(OC)cc2)cc1`, the EC50 was 14.7 µM.

In the case of `CC(C)NC(=O)Nc1ccc2nc(-c3cccs3)c(-c3cccs3)nc2c1`, the EC50 is reported as > 20 µM (inactive).

With `CCCS(=O)(=O)Nc1ccc2nc(-c3ccccc3)c(-c3ccccc3)nc2c1` the EC50 was > 20 µM (inactive).

For `O=S(=O)(Nc1ccc2nc(-c3ccccc3)c(-c3ccccc3)nc2c1)C1CC1`, the EC50 was > 20 µM (inactive).

For `COc1ccc(-c2nc3nc(-c4ccc(OC)cc4OC)cn3nc2-c2ccc(OC)cc2)cc1`, the EC50 was > 20 µM (inactive).

For `CCC(=O)Nc1ccc2nc(-c3ccccc3)c(-c3ccccc3)nc2c1`, the EC50 was > 20 µM (inactive).

With `COc1ccc(-c2nc3nc(-c4ccc(S(C)(=O)=O)cc4)cn3nc2-c2ccc(OC)cc2)cc1` the EC50 was > 20 µM (inactive).

In the case of `O=C(Nc1ccc2nc(-c3cccs3)c(-c3cccs3)nc2c1)C1CCCC1`, the EC50 is reported as > 20 µM (inactive).

`COc1ccc(-c2cn3nc(-c4ccc(C)cc4)c(-c4ccc(C)cc4)nc3n2)cc1` was tested, and the EC50 was 5 µM.

`COc1ccc(-c2nc3nc(-c4ccccc4OC)cn3nc2-c2ccc(OC)cc2)cc1` gave an EC50 of 8.9 µM.

With `CC(C)OC(=O)Nc1ccc2nc(-c3ccccc3)c(-c3ccccc3)nc2c1` the EC50 was > 20 µM (inactive).

`COc1ccc(-c2cn3nc(-c4ccccc4)c(-c4ccccc4)nc3n2)c(OC)c1` showed an EC50 of 13.2 µM.

`CC(C)NC(=O)Nc1ccc2nc(-c3ccccc3)c(-c3ccccc3)nc2c1` was tested, and the EC50 was > 20 µM (inactive).

`Cc1ccc(-c2nc3nc(-c4ccc(F)cc4)cn3nc2-c2ccc(C)cc2)cc1` gave an EC50 of 7.6 µM.

`COc1cccc(-c2cn3nc(-c4ccc(C)cc4)c(-c4ccc(C)cc4)nc3n2)c1` showed an EC50 of 6.6 µM.

For `O=C(Nc1ccc2nc(-c3cccs3)c(-c3cccs3)nc2c1)C1CC1`, the EC50 was > 20 µM (inactive).

For `N#Cc1ccc(-c2cn3nc(-c4ccc(F)cc4)c(-c4ccc(F)cc4)nc3n2)cc1`, the EC50 was > 20 µM (inactive).

`O=C(Nc1ccc2nc(-c3ccccc3)c(-c3ccccc3)nc2c1)NC1CCCC1` was tested, and the EC50 was > 20 µM (inactive).

For `Cc1ccc(-c2cn3nc(-c4ccc(F)cc4)c(-c4ccc(F)cc4)nc3n2)cc1`, the EC50 was 7.7 µM.

`COc1ccc(-c2cn3nc(-c4ccc(C)cc4)c(-c4ccc(C)cc4)nc3n2)c(OC)c1` showed an EC50 of 9.5 µM.

`COc1ccccc1-c1cn2nc(-c3ccc(F)cc3)c(-c3ccc(F)cc3)nc2n1` showed an EC50 of 6.2 µM.

Compound `COc1cccc(-c2cn3nc(-c4ccc(F)cc4)c(-c4ccc(F)cc4)nc3n2)c1` has an EC50 of 11.1 µM.

With `CCCNC(=O)Nc1ccc2nc(-c3ccccc3)c(-c3ccccc3)nc2c1` the EC50 was > 20 µM (inactive).

With `CCCOC(=O)Nc1ccc2nc(-c3ccccc3)c(-c3ccccc3)nc2c1` the EC50 was > 20 µM (inactive).

For `O=C(Nc1ccc2nc(-c3cccs3)c(-c3cccs3)nc2c1)NC1CCCC1`, the EC50 was > 20 µM (inactive).

In the case of `COc1ccc(-c2nc3nc(-c4ccc(F)cc4)cn3nc2-c2ccc(OC)cc2)cc1`, the EC50 is reported as 4 µM.

With `Fc1ccc(-c2cn3nc(-c4ccccc4)c(-c4ccccc4)nc3n2)cc1` the EC50 was > 20 µM (inactive).

Work on `Cc1ccc(-c2nc3nc(-c4ccc(C#N)cc4)cn3nc2-c2ccc(C)cc2)cc1` yielded an EC50 of 4.7 µM.

Compound `Fc1ccc(-c2nc3nc(-c4cccc(F)c4)cn3nc2-c2ccc(F)cc2)cc1` has an EC50 of 8.6 µM.

For `Fc1cccc(-c2cn3nc(-c4ccccc4)c(-c4ccccc4)nc3n2)c1`, the EC50 was > 20 µM (inactive).

With `Fc1ccc(-c2nc3nc(-c4ccc(OC(F)(F)F)cc4)cn3nc2-c2ccc(F)cc2)cc1` the EC50 was 15.3 µM.

In the case of `CCNC(=O)Nc1ccc2nc(-c3ccccc3)c(-c3ccccc3)nc2c1`, the EC50 is reported as > 20 µM (inactive).

In the case of `CCC(=O)Nc1ccc2nc(-c3cccs3)c(-c3cccs3)nc2c1`, the EC50 is reported as > 20 µM (inactive).

In the case of `CC(C)CS(=O)(=O)Nc1ccc2nc(-c3ccccc3)c(-c3ccccc3)nc2c1`, the EC50 is reported as > 20 µM (inactive).

`COc1ccc(-c2nc3nc(-c4ccc(C)cc4)cn3nc2-c2ccc(OC)cc2)cc1` was tested, and the EC50 was > 20 µM (inactive).

`CCNC(=S)Nc1ccc2nc(-c3ccccc3)c(-c3ccccc3)nc2c1` was tested, and the EC50 was > 20 µM (inactive).

For `CCOC(=O)Nc1ccc2nc(-c3cccs3)c(-c3cccs3)nc2c1`, the EC50 was > 20 µM (inactive).

`COc1ccc(-c2nc3nc(-c4ccccc4)cn3nc2-c2ccc(OC)cc2)cc1` was tested, and the EC50 was 9.2 µM.

`COC(=O)Nc1ccc2nc(-c3cccs3)c(-c3cccs3)nc2c1` was tested, and the EC50 was > 20 µM (inactive).

In the case of `Cc1ccc(-c2nc3nc(-c4ccc(OC(F)(F)F)cc4)cn3nc2-c2ccc(C)cc2)cc1`, the EC50 is reported as 4 µM.
